Experimental data from PubChem BioAssay AID1996.
In brackets after ≈: the same amount, converted by molar mass.

Conditions: buffer; pH 7.4; 200.0 µM

| Structure (SMILES) | solubility kinetic |
| --- | --- |
| NC1=NC(=O)C(Cc2ccc(F)cc2)S1 (stereo not given) | 22 µg/mL (≈ 98.1 µM) |
| CCN(CC)S(=O)(=O)c1ccc(OC(C)C)c(N)c1 | > 43 µg/mL |
| COc1ccc(CCNC(=O)COC(=O)/C=C/c2cccc(F)c2)cc1 | 5.4 µg/mL (≈ 15.1 µM) |
| Cc1onc(-c2ccccc2)c1-c1nc2cc(Cl)ccc2c(=O)o1 | 3.7 µg/mL (≈ 10.9 µM) |
| Cc1sc2nc(C(C)C)nc(SCC(=O)NC3CC3)c2c1C | 1.5 µg/mL (≈ 4.47 µM) |
| O=C(O)CCCC(=O)Nc1nncs1 | > 32.3 µg/mL |
| O=C(O)COCC(=O)Nc1ccc(-n2cnnn2)cc1 | > 41.6 µg/mL |
| O=C(NC(=S)N1CCOCC1)c1ccc(F)cc1 | > 40.2 µg/mL |
| Cc1cc2c(SCC(=O)NCC3CCCO3)ncnc2s1 (stereo not given) | > 48.5 µg/mL |
| COC(=O)[C@H](Cc1ccccc1)NC(=O)N1CCCCCC1 | > 45.7 µg/mL |
| Cc1cc(C)n(-c2cc(C(=O)O)cc(C(=O)O)c2)n1 | > 39 µg/mL |
| O=C(CCCn1cnc([N+](=O)[O-])n1)Nc1cc(Cl)ccc1O | > 48.9 µg/mL |
| CCOn1c(=O)c(-c2ccc(Br)cc2)[n+]([O-])c2ccccc21 | 1.3 µg/mL (≈ 3.6 µM) |
| C=CCNC(=O)c1ccc(CSc2nc3ccccc3s2)cc1 | 8.2 µg/mL (≈ 24.1 µM) |
| Cn1c(N)nc2ccccc2c1=O | 21.9 µg/mL (≈ 125 µM) |
| CC(NC(=O)c1cccs1)c1ccc(Br)cc1 (stereo not given) | 3.8 µg/mL (≈ 12.2 µM) |
| O=C(C(c1ccccc1)c1ccccc1)N1CC[C@@]2(O)CCCC[C@H]2C1 | > 52.4 µg/mL |
| CC(C)(C)C(=O)N1CCN(c2nc3ccc(Cl)cc3s2)CC1 | 2.3 µg/mL (≈ 6.81 µM) |
| Cc1cccc2cc(/C=C/C(=O)c3ccco3)c(Cl)nc12 | 3.9 µg/mL (≈ 13.1 µM) |
| Cc1nc2ccccc2c2oc(C(=O)N3CC(C)CC(C)C3)cc12 (stereo not given) | 35.5 µg/mL (≈ 110 µM) |

| Structure (SMILES) | solubility kinetic |
| --- | --- |
| CCn1c(SCc2cccc(F)c2)nc2c(c1=O)SCC2 | 11.2 µg/mL (≈ 34.7 µM) |
| CCc1cccc2c1NC(=O)C2(O)N1CCCC(C)C1 (stereo not given) | 38.5 µg/mL (≈ 140 µM) |
| COCCCNC(=O)c1ccc(-c2csc(C)n2)cc1 | > 43.6 µg/mL |
| Cc1ccc(S(=O)(=O)NC(C)(C)CN2CCCCC2)cc1 | > 46.6 µg/mL |
| C=CCNC(=O)CSCc1ccc(Br)cc1 | > 45 µg/mL |
| O=C(/C=C/c1ccccc1)Oc1cccc(C(=S)N2CCOCC2)c1 | 4.6 µg/mL (≈ 13 µM) |
| O=C(COc1ccc(F)cc1Br)NCC1(N2CCCCC2)CCCCC1 | 55 µg/mL (≈ 129 µM) |
| O=C(O)Cn1c(=O)c2c3c(sc2n(Cc2ccc(F)cc2)c1=O)CCCC3 | > 58.3 µg/mL |
| COc1ccccc1OCc1nc2ccccc2n1C | 37.5 µg/mL (≈ 140 µM) |
| CC(=O)Nc1ccccc1Oc1ccccc1 | > 34.1 µg/mL |
| O=C(Cc1ccc(F)cc1)Nc1nc(-c2ccc(F)c(F)c2)cs1 | 1.4 µg/mL (≈ 4.02 µM) |
| CCOc1ccc(N2CC(C(=O)NC3CCCCCC3)CC2=O)cc1 (stereo not given) | 15.2 µg/mL (≈ 44.1 µM) |
| O=C(CN1C(=O)c2ccccc2C1=O)NC1CCCCCC1 | 12.4 µg/mL (≈ 41.3 µM) |
| CCOC(=O)C1=C(C)N(CC(C)C)C(=O)/C1=C\c1cccs1 | < 0.7 µg/mL |
| O=C1NC2(CCCCCC2)C(=O)N1Cc1ccccc1 | > 40.9 µg/mL |
| Cc1ccc2cc(C#N)c(N3CCN(C(=O)c4cccs4)CC3)nc2c1 | < 0.2 µg/mL |
| N/C(=N\OC(=O)Cc1ccc(-c2ccccc2)cc1)c1ccncc1 | 0.7 µg/mL (≈ 2.11 µM) |
| Cc1cc(Cl)ccc1OC(C)C(=O)NCCCn1ccnc1 (stereo not given) | > 48.3 µg/mL |
| O=C(COc1ccc(Cl)cc1Cl)NC(=O)c1ccccc1 | < 0.7 µg/mL |
| CCCn1c(N2CCN(C(=O)/C=C/C(=O)O)CC2)nc2ccccc21 | > 51.4 µg/mL |

| Structure (SMILES) | solubility kinetic |
| --- | --- |
| CC1(C)CC(=O)C2=C(C1)NC(=O)NC2c1ccc([N+](=O)[O-])cc1 (stereo not given) | > 47.3 µg/mL |
| Cc1ccc(N2C(=O)CC(Cc3ccc(Cl)cc3)C2=O)cc1 (stereo not given) | 7.1 µg/mL (≈ 22.6 µM) |
| CCN(CC)c1ccc(/C=C(\C#N)C(N)=O)cc1 | > 36.5 µg/mL |
| COc1cc(C(=O)O)cc(NC(=O)c2ccco2)c1OC | > 43.7 µg/mL |
| COc1ccc(CC(=O)NCc2ccc3c(c2)cc(C)n3C)cc1OC | 20.8 µg/mL (≈ 59 µM) |
| CCN(CC)C(=O)Oc1ccnc2cc(Cl)ccc12 | > 41.8 µg/mL |
| CCCOc1ccc(S(=O)(=O)N2CCN(C)CC2)c2ccccc12 | 39.2 µg/mL (≈ 112 µM) |
| CC1CCCC(NC(=O)COC(=O)c2ccc([N+](=O)[O-])s2)C1C (stereo not given) | 15.4 µg/mL (≈ 45.2 µM) |
| O=c1[nH]c(C(F)(F)F)nc2ccc3ccccc3c12 | > 39.6 µg/mL |
| CC(=O)Nc1ccc(N2C(=O)CSC2c2ccccc2)cc1 (stereo not given) | > 46.9 µg/mL |
| Brc1ccc(-c2noc(-c3ccccn3)n2)o1 | 10.8 µg/mL (≈ 37 µM) |
| COc1ccc(CNC(=O)C2CC(C)=C(C)CC2C(=O)O)cc1OC (stereo not given) | > 52.1 µg/mL |
| CCC(=O)Nc1nc(-c2cc([N+](=O)[O-])cs2)cs1 | 1 µg/mL (≈ 3.53 µM) |
| CSc1ncccc1C(=O)OCC(=O)C(C)(C)C | 39.6 µg/mL (≈ 148 µM) |
| O=C(NC(=O)c1ccccc1)Nc1ccccc1 | 1.2 µg/mL (≈ 4.99 µM) |
| c1ccc(CN2CCN(Cc3ccc4ccccc4c3)CC2)cc1 | 23.4 µg/mL (≈ 73.9 µM) |
| COc1ccccc1NS(=O)(=O)c1cccc(NS(=O)(=O)c2cc(C(=O)O)ccc2OC)c1 | > 73.9 µg/mL |
| CC1(C)C2CCC1(C)C([NH2+]c1ccccc1)C2.[Cl-] (stereo not given) | < 0.6 µg/mL |
| CNC(=O)COc1ccc(S(=O)(=O)Nc2ccc(C)cc2)cc1 | > 50.2 µg/mL |
| O=C(O)CCN=CC1=C(O)CC(c2ccccc2)CC1=O (stereo not given) | > 43.1 µg/mL |
